Results as given in EP4029501A1, “COMBINATION OF POLYAROMATIC UREA DERIVATIVES AND GLUCOCORTICOID OR HDAC INHIBITOR FOR THE TREATMENT OF DISEASES OR CONDITIONS ASSOCIATED WITH MUSCLE CELLS AND/OR SATELLITE CELLS” (Anagenesis Biotechnologies, priority 2021, dated 2022).
Structures can show the parent of a compound that is named as a salt.

Test system: muscle progenitors derived from DMD hiPSC
Test: Myotube assay: total myotube area per well (alpha-actinin staining)
Type: cell-based, human
Conditions: Homo sapiens, Myotube, 72 h, DMD or WT cell source not given; for Emax: efficacy, MA = normalized Myotube Area, 3 days incubation; for EC50: myogenic activity, half-maximal generation of myotubes, 10 points dose-response 1.5 nM to 30 µM, 3 days
Protocol: An in vitro assay for assessing the efficacy of compounds for use in treating, ameliorating, delaying, curing and/or preventing a disease or condition associated with muscle cells and/or satellite cells is described in example 78. Herein, the generation of myotubes and satellite cells after adding a compound to a myotube assay workflow is assessed. Said myotube assay workflow is derived from wild-type or DMD human induced pluripotent stem cells (WT hiPSC or DMD hiPSC). Before the addition of said compound, the assay comprises satellite-like cells, but no significant amount of myotubes.
The efficacy of said compound for use in treating, ameliorating, delaying, curing and/or preventing a disease or condition associated with muscle cells and/or satellite cells is positively correlated with the generation of myotubes (i.e. the increase of the area occupied by myotubes on the assay) and/or satellite cells (i.e. the increase of the number of satellite cells) in the assay after adding said compound. The generation of myotubes by the addition of said compound is expressed as the EC50 value, the concentration of said compound that corresponds with the half-maximal generation of myotubes, and the MA (normalized myotube area) value, the normalized area occupied by generated myotubes on the assay. […] Since muscle cells are formed from myotubes during myogenesis, the generation of myotubes in the assay is a good indicator of the ability of said compound to induce the formation of functional muscle cells in vivo. The number of satellite cells is measured as the percentage of Pax7 positive cells, relative to the total number of cells in the assay, as shown in Figure 3. The percentage of Pax7 is a good indicator of the ability of said compound to induce the formation of satellite cells which are able to play a role in muscle repair and regeneration in vivo.
DMD human induced pluripotent stem cells (hereafter "DMD hiPSC"), generated from the NCRM-1 hiPSC WT cell line by gene editing, or WT human induced pluripotent stem cells (hereafter "WT hiPSC"), being NCRM-1 hiPSC wt cell line, have been differentiated according to Chal et al. 2015, 2016, to produce muscle progenitors (hereafter "hMP"). The hMP population contains satellite-like cells (i.e Pax7-positive cells) and satellite cells' progenies (i.e. Myogenin-positive cells).
Figure 1 provides an example of a Myotube assay workflow. At day 0, hMP are thawed and 3.1 million cells are plated into a T75-flask coated with hESC-qualified Matrigel™ (Corning) in SkGM proliferating medium (PromoCells), supplemented with 5 µM Y-27632 (Tocris Bioscience). On day 2, SkGM proliferating medium is refreshed. On day 4, hMP are harvested and transferred into a 384-well plate coated with collagen type I at a density of 3500 cells/well in a DMEM-based medium, containing 5% of knockout serum replacement (Gibco), 1% PenStrep (Gibco), 1% MEM NEAA (Gibco) and 0.1 mM 2-mercaptoethanol (Gibco) (hereafter "K5 medium") and 5 µM Y-27632. Compounds to be tested are then added in the medium and incubated for 3 days at 37°C. On day 7, cells are fixed and immunostained. For example, myotubes (alpha-actinin staining) and satellite-like (Pax7 staining) cells can be analyzed for total myotube area per well or Pax7-positive cell quantification.
DMD hMP were put in the Myotube assay according to the workflow described in Example 2.1. In particular, compound (i) was added at concentrations ranging from 1.5 nM to 30 µM, starting from day 4. hMP were cultivated for three more days in presence of compound (i), then fixed and analyzed for quantification of total myotube area per well. Duplicates of each condition were averaged.

Compound	Emax	EC50
CSc1cc(Oc2ccnc3c2CCC(=O)N3)ccc1NC(=O)Nc1cc(C(C)(C)C)nn1-c1ccc(C)cc1 [(by), 1-(3-(tert-butyl)-1-(p-tolyl)-1H-pyrazol-5-yl)-3-(2-(methylthio)-4-((7-oxo-5,6,7,8-tetrahydro-1,8-naphthyridin-4-yl)oxy)phenyl)urea]	≥ 75%	< 500 nM
CSc1cc(Oc2ccnc3c2CCC(=O)N3)ccc1NC(=O)Nc1cc(C(C)(C)C)nn1-c1cccc(Cl)c1 [(bz), 1-(3-(tert-butyl)-1-(3-chlorophenyl)-1H-pyrazol-5-yl)-3-(2-(methylthio)-4-((7-oxo-5,6,7,8-tetrahydro-1,8-naphthyridin-4-yl)oxy)phenyl)urea]	≥ 75%	< 500 nM
CCC(C)c1cc(NC(=O)Nc2ccc(Oc3ccnc4[nH]c(=O)cnc34)cc2F)n(-c2ccccc2)n1 (stereo not drawn) [(c), 1-(3-(sec-butyl)-1-phenyl-1 H-pyrazol-5-yl)-3-(2-fluoro-4-((3-oxo-3,4-dihydropyrido[2,3-b]pyrazin-8-yl)oxy)phenyl)urea]	50 to 75%	≥ 5000 nM
CSc1cc(Oc2ccnc3[nH]c(=O)cnc23)ccc1NC(=O)Nc1nc(C(C)(C)C)cs1 [(ca), 1-(4-(tert-butyl)thiazol-2-yl)-3-(2-(methylthio)-4-((3-oxo-3,4-dihydropyrido[2,3-b]pyrazin-8-yl)oxy)phenyl)urea]	≥ 75%	≥ 5000 nM
CSc1cc(Oc2ccnc3c2CCC(=O)N3)ccc1NC(=O)Nc1ncc(C(C)(C)C)s1 [(cb), 1-(5-(tert-butyl)thiazol-2-yl)-3-(2-(methylthio)-4-((7-oxo-5,6,7,8-tetrahydro-1,8-naphthyridin-4-yl)oxy)phenyl)urea]	≥ 75%	< 500 nM
CSc1cc(Oc2ccnc3[nH]c(=O)cnc23)ccc1NC(=O)Nc1cc(C(C)(C)C)nn1-c1ccc(C#N)cc1 [(cc), 1-(3-(tert-butyl)-1-(4-cyanophenyl)-1H-pyrazol-5-yl)-3-(2-(methylthio)-4-((3-oxo-3,4-dihydropyrido[2,3-b]pyrazin-8-yl)oxy)phenyl)urea]	≥ 75%	< 500 nM
CSc1cc(Oc2ccnc3[nH]c(=O)cnc23)ccc1NC(=O)Nc1cc(C(C)(C)C)nn1-c1ccc(C)c(C)c1 [(cd), 1-(3-(tert-butyl)-1-(3,4-dimethylphenyl)-1H-pyrazol-5-yl)-3-(2-(methylthio)-4-((3-oxo-3,4-dihydropyrido[2,3-b]pyrazin-8-yl)oxy)phenyl)urea]	≥ 75%	< 500 nM
CSc1cc(Oc2ccnc3[nH]c(=O)cnc23)ccc1NC(=O)Nc1cc(C(C)(C)C)nn1-c1ccc(OCCN2CCCCC2)cc1 [(ce), 1-(3-(tert-butyl)-1-(4-(2-(piperidin-1-yl)ethoxy)phenyl)-1H-pyrazol-5-yl)-3-(2-(methylthio)-4-((3-oxo-3,4-dihydropyrido[2,3-b]pyrazin-8-yl)oxy)phenyl)urea]	≥ 75%	< 500 nM
CSc1cc(Oc2ccnc3[nH]c(=O)cnc23)ccc1NC(=O)Nc1cc(C(C)(C)C)nn1-c1ccc(OCCN2CCOCC2)cc1 [(cf), 1-(3-(tert-butyl)-1-(4-(2-morpholinoethoxy)phenyl)-1 H-pyrazol-5-yl)-3-(2-(methylthio)-4-((3-oxo-3,4-dihydropyrido[2,3-b]pyrazin-8-yl)oxy)phenyl)urea]	≥ 75%	500 to 1000 nM
CSc1cc(Oc2ccnc3c2CCC(=O)N3)ccc1NC(=O)Nc1cncc(C(F)(F)F)c1 [(cg), 1-(2-(methylthio)-4-((7-oxo-5,6,7,8-tetrahydro-1,8-naphthyridin-4-yl)oxy)phenyl)-3-(5-(trifluoromethyl)pyridin-3-yl)urea]	≥ 75%	≥ 5000 nM
CSc1cc(Oc2ccnc(N(CCN(C)C)C(=O)OC(C)(C)C)c2)ccc1NC(=O)Nc1cc(C(C)(C)C)nn1-c1ccccc1 [(ch), tert-butyl (4-(4-(3-(3-(tert-butyl)-1-phenyl-1H-pyrazol-5-yl)ureido)-3-(methylthio)phenoxy)pyridin-2-yl)(2-(dimethylamino)ethyl)carbamate]	50 to 75%	≥ 5000 nM
CSc1cc(Oc2cccc3c2CCC(=O)N3)ccc1NC(=O)Nc1cc(C(C)(C)C)nn1-c1ccccc1 [(ci), 1-(3-(tert-butyl)-1-phenyl-1H-pyrazol-5-yl)-3-(2-(methylthio)-4-((2-oxo-1,2,3,4-tetrahydroquinolin-5-yl)oxy)phenyl)urea]	25 to 50%	≥ 5000 nM
CSc1cc(Oc2ccnc3[nH]c(=O)cnc23)ccc1NC(=O)Nc1nnc(C(C)(C)C)o1 [(cj), 1-(5-(tert-butyl)-1,3,4-oxadiazol-2-yl)-3-(2-(methylthio)-4-((3-oxo-3,4-dihydropyrido[2,3-b]pyrazin-8-yl)oxy)phenyl)urea]	≥ 75%	≥ 5000 nM
CSc1cc(Oc2ccnc(NCCN(C)C)c2)ccc1NC(=O)Nc1cc(C(C)(C)C)nn1-c1ccccc1 [(ck), 1-(3-(tert-butyl)-1-phenyl-1 H-pyrazol-5-yl)-3-(4-((2-((2-(dimethylamino)ethyl)amino)pyridin-4-yl)oxy)-2-(methylthio)phenyl)urea hydrochloride]	≥ 75%	500 to 1000 nM
CSc1cc(Oc2ccnc3[nH]c(=O)cnc23)ccc1NC(=O)Nc1cc(C(C)(C)C)nn1-c1ccc(C)c(Cl)c1 [(cl), 1-(3-(tert-butyl)-1-(3-chloro-4-methylphenyl)-1H-pyrazol-5-yl)-3-(2-(methylthio)-4-((3-oxo-3,4-dihydropyrido[2,3-b]pyrazin-8-yl)oxy)phenyl)urea]	≥ 75%	< 500 nM
CSc1cc(Oc2ccnc3[nH]c(=O)cnc23)ccc1NC(=O)Nc1cc(C(C)(C)C)nn1-c1ccc(F)c(Cl)c1 [(cm), 1-(3-(tert-butyl)-1-(3-chloro-4-fluorophenyl)-1H-pyrazol-5-yl)-3-(2-(methylthio)-4-((3-oxo-3,4-dihydropyrido[2,3-b]pyrazin-8-yl)oxy)phenyl)urea]	≥ 75%	500 to 1000 nM
CSc1cc(Oc2cccc3[nH]ncc23)ccc1NC(=O)Nc1cc(C(C)(C)C)nn1-c1ccccc1 [(cn), 1-(4-((1H-indazol-4-yl)oxy)-2-(methylthio)phenyl)-3-(3-(tert-butyl)-1-phenyl-1H-pyrazol-5-yl)urea]	50 to 75%	1000 to 5000 nM
CSc1cc(Oc2ccnc(C(=O)Nc3ccccc3)c2)ccc1NC(=O)Nc1cc(C(C)(C)C)nn1-c1ccccc1 [(co), 4-(4-(3-(3-(tert-butyl)-1-phenyl-1H-pyrazol-5-yl)ureido)-3-(methylthio)phenoxy)-N-phenylpicolinamide]	25 to 50%	≥ 5000 nM
CC(C)(C)c1cc(NC(=O)Nc2ccc(Oc3ccnc4[nH]c(=O)cnc34)c(OC(F)(F)F)c2)n(-c2ccccc2)n1 [(cp), 1-(3-(tert-butyl)-1-phenyl-1H-pyrazol-5-yl)-3-(4-((3-oxo-3,4-dihydropyrido[2,3-b]pyrazin-8-yl)oxy)-3-(trifluoromethoxy)phenyl)urea]	50 to 75%	500 to 1000 nM
CC(C)(C)c1cc(NC(=O)Nc2cc(Oc3ccnc4[nH]c(=O)cnc34)ccc2F)n(-c2ccccc2)n1 [(cq), 1-(3-(tert-butyl)-1-phenyl-1 H-pyrazol-5-yl)-3-(2-fluoro-5-((3-oxo-3,4-dihydropyrido[2,3-b]pyrazin-8-yl)oxy)phenyl)urea]	≥ 75%	500 to 1000 nM
CSc1cc(Oc2ccnc3[nH]c(=O)cnc23)ccc1NC(=O)Nc1cc(C(C)(C)C)nn1-c1ccc(OCCCN(C)C)cc1 [(cr), 1-(3-(tert-butyl)-1-(4-(3-(dimethylamino)propoxy)phenyl)-1H-pyrazol-5-yl)-3-(2-(methylthio)-4-((3-oxo-3,4-dihydropyrido[2,3-b]pyrazin-8-yl)oxy)phenyl)urea]	≥ 75%	< 500 nM
